Assays:
[1] = biological target: T1, glucocorticoid receptor (GR) (Homo sapiens, UniProt P04150); test: binding to the glucocorticoid receptor (recombinant receptor, Sf9 cytosol); conditions: cytosol of Sf9 cells, reference [3H]-dexamethasone
T1 construct: made in house; host or cells: Sf9 cells infected with recombinant baculovirus (cytosol preparation)
T1 sequence (P04150 1-777): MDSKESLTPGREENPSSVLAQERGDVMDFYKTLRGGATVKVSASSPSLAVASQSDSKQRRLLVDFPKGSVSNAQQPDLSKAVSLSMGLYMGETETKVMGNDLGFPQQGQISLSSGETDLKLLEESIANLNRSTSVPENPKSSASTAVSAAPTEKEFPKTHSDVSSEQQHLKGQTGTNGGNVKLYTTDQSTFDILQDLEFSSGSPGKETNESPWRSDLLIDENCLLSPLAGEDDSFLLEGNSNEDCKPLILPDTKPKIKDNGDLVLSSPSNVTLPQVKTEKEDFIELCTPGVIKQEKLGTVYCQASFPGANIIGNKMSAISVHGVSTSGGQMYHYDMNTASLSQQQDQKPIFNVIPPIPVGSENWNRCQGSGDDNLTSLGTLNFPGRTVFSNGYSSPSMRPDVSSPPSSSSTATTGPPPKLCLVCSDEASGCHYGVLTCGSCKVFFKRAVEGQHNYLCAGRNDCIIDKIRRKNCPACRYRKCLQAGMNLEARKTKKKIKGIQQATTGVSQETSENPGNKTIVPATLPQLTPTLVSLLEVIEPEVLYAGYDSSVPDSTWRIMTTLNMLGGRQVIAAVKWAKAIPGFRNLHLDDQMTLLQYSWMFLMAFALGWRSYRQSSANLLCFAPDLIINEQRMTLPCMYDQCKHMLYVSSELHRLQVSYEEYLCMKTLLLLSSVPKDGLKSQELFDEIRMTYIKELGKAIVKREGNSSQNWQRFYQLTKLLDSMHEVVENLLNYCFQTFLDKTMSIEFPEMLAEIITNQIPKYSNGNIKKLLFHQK
Source text: (§1) The binding of the substances to the glucocorticoid receptor (GR) and further steroid hormone receptors (mineral corticoid receptor (MR), progesterone receptor (PR) and androgen receptor (AR)) is examined with the aid of recombinantly prepared receptors. Cytosol preparations of Sf9 cells which had been infected with recombinant baculoviruses which code for the GR are employed for the binding studies. Compared with the reference substance [^3H]-dexamethasone, the substances show a high affinity for the GR.

[2] = biological target: T2, progesterone receptor (PR) (Homo sapiens, UniProt P06401); test: binding to the progesterone receptor (recombinantly prepared receptor)
T2 construct: made in house
T2 sequence (P06401 1-933): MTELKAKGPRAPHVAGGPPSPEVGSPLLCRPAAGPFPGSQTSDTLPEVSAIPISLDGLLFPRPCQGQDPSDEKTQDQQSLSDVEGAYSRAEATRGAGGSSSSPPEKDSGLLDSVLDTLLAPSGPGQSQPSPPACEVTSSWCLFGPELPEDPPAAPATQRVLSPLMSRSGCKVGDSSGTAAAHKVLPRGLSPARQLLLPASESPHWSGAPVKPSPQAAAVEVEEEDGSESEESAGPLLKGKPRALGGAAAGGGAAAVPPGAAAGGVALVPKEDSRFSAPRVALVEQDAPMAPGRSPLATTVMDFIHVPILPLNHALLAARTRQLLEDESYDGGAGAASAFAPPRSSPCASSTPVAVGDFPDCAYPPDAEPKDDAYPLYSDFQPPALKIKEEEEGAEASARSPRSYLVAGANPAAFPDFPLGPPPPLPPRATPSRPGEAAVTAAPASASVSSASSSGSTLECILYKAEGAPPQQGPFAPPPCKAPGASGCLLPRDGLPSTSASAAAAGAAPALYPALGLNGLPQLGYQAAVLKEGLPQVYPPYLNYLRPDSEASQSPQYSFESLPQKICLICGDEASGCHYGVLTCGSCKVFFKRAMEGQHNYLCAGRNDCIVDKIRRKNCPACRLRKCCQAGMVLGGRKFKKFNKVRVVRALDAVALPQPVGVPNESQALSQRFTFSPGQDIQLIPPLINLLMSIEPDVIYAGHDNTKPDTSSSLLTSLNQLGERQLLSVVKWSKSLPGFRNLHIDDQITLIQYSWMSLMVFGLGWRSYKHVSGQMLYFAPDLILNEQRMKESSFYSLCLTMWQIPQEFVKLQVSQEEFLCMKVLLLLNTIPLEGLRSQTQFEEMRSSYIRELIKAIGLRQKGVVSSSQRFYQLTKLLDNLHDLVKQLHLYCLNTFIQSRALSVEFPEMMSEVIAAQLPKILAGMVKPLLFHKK
Source text: as §1

[3] = system: IL-8 secretion in the human THP-1 monocyte cell line; test: inhibition of LPS-induced IL-8 secretion in THP-1 cells (ELISA); assay type: cell-based
Description: The compounds of the invention of the general formula (I) inhibit the secretion, induced by lipopolysaccharide (LPS), of the cytokine IL-8 in the human THP-1 monocyte cell line. The concentration of the cytokines was determined in the supernatant using a commercially available ELISA kit.

Row | SMILES | IC50 [1] [nM] | IC50 [2] [nM] | IC50 ([3]; LPS, ELISA of supernatant, read-out: IC50(ILB) inhibition of LPS-induced IL-8 secretion) [nM] | efficiency with regard to [3H]-dexamethasone as standard ([3]; LPS-induced IL-8 secretion) [%]
1 | CC1(C)C[C@@](O)(C(F)(F)F)[C@H](NC(=O)c2ccc3occc3c2)c2ccc(F)c(O)c21 (relative stereo) [Example 3L, N-(cis-6-fluoro-2,5-dihydroxy-4,4-dimethyl-2-trifluoro-methyl-1,2,3,4-tetrahydronaphthalen-1-yl)benzofuran-5-carboxamide] | 36 | > 1000 |  | 
2 | COc1c(F)ccc2c1C(C)(C)C[C@@](O)(C(F)(F)F)[C@@H]2NC(=O)Nc1ccc2ccccc2c1 [Example 3E] |  |  | 1000 | 11

Reference: patent US20070129359A1, “Tetrahydronaphthalene derivatives, processes for their preparation and their use as antiinflammatory agents” (priority 2005, published 2007)
